From ChEMBL document CHEMBL5380816, “Inclusion of Nitrofurantoin into the Realm of Cancer Chemotherapy via Biology-Oriented Synthesis and Drug Repurposing” (J Med Chem, 2023)
The source made the active and inactive calls. The calls are words filed in the database; no cut-off is given here.

Key:
MCF7 [1] = test: Induction of apoptosis in human MCF7 cells assessed as late apoptotic cells incubated at 0.098 uM for 72 hrs by annexin V-FITC based propidium iodide dual staining assay (reference value: 0.01%); assay type: functional
HeLa [2] = test: Induction of apoptosis in human HeLa cells assessed as late apoptotic cells incubated at 0.098 uM for 72 hrs by annexin V-FITC based propidium iodide dual staining assay (reference value: 0%); assay type: functional
MCF7 [3] = test: Anticancer activity against human MCF7 cells assessed as round cells incubated at 0.098uM for 72 hrs by phase contrast inverted microscopic analysis; assay type: functional, cell-based
Caco-2 [4] = test: Induction of apoptosis in human Caco-2 cells assessed as late apoptotic cells by measuring orange to red patch incubated at 0.098 uM for 72 hrs by acridine orange-ethidium bromide dual staining based fluorescence microscopic analysis; assay type: functional, cell-based
MCF7 [5] = test: Anticancer activity against human MCF7 cells assessed as cell shrinkage incubated at 0.098uM for 72 hrs by phase contrast inverted microscopic analysis; assay type: functional, cell-based
HeLa [6] = test: Anticancer activity against human HeLa cells assessed as smaller cells incubated at 0.098uM for 72 hrs by phase contrast inverted microscopic analysis; assay type: functional, cell-based
HeLa [7] = test: Anticancer activity against human HeLa cells assessed as losing contact with neighbouring cells incubated at 0.098uM for 72 hrs by phase contrast inverted microscopic analysis; assay type: functional, cell-based
MCF7 [8] = test: Induction of oxidative stress in human MCF7 cells assessed as cell death by measuring redox alteration fluorescence incubated at 0.017 uM for 72 hrs in presence of dihydro dichlorofluorescein diacetate by DCFH-DA based flow cytometric analysis relative to control; assay type: functional
MCF7 [9] = test: Anticancer activity against human MCF7 cells assessed as losing contact with neighbouring cells incubated at 0.098uM for 72 hrs by phase contrast inverted microscopic analysis; assay type: functional, cell-based
HeLa [10] = test: Induction of apoptosis in human HeLa cells assessed as early apoptotic cells incubated at 0.017 uM for 72 hrs by annexin V-FITC based propidium iodide dual staining assay (reference value: 2.77%); assay type: functional
HeLa [11] = test: Induction of apoptosis in human HeLa cells assessed as necrotic cells incubated at 0.017 uM for 72 hrs by annexin V-FITC based propidium iodide dual staining assay (reference value: 0%); assay type: functional
MCF7 [12] = test: Induction of apoptosis in human MCF7 cells assessed as necrotic cells incubated at 0.017 uM for 72 hrs by annexin V-FITC based propidium iodide dual staining assay (reference value: 0.03%); assay type: functional
MCF7 [13] = test: Induction of apoptosis in human MCF7 cells assessed as viable cells incubated at 0.11 uM for 72 hrs by annexin V-FITC based propidium iodide dual staining assay (reference value: 99.9%); assay type: functional; settings: read-out: Activity
Caco-2 [14] = test: Induction of apoptosis in human Caco-2 cells assessed as viable cells incubated at 0.11 uM for 72 hrs by annexin V-FITC based propidium iodide dual staining assay (reference value: 99.89%); assay type: functional; settings: read-out: Activity
HeLa [15] = test: Anticancer activity against human HeLa cells assessed as cell shrinkage incubated at 0.11 uM for 72 hrs by phase contrast inverted microscopic analysis; assay type: functional, cell-based
Caco-2 [16] = test: Induction of apoptosis in human Caco-2 cells assessed as caspase3/7 activation at 0.11 uM using caspase-glo 3/7 as substrate relative to control; assay type: functional
Caco-2 [17] = test: Anticancer activity against human Caco-2 cells assessed as round cells incubated at 0.11 uM for 72 hrs by phase contrast inverted microscopic analysis; assay type: functional, cell-based
HepG2 [18] = test: Induction of apoptosis in human HepG2 cells assessed as pro-oxidant effect by measuring free radical generation measured at 0.11 uM after 72 hrs; assay type: functional, cell-based
MCF7 [19] = test: Induction of oxidative stress in human MCF7 cells assessed as cell death by measuring redox alteration fluorescence incubated at 0.097 uM for 72 hrs in presence of dihydro dichlorofluorescein diacetate by DCFH-DA based flow cytometric analysis relative to control; assay type: functional
MCF7 [20] = test: Anticancer activity against human MCF7 cells assessed as absence of normal spindle shape incubated at 0.11 uM for 72 hrs by phase contrast inverted microscopic analysis; assay type: functional, cell-based
Caco-2 [21] = test: Anticancer activity against human Caco-2 cells assessed as absence of normal spindle shape incubated at 0.11 uM for 72 hrs by phase contrast inverted microscopic analysis; assay type: functional, cell-based
dsDNA = test: Induction of damage in dsDNA (unknown origin) assessed as DNA disruption by measuring fluorescence intensity at 100 uM incubated for 2.5 hrs by EvaGreen based fluorescence plate reader analysis; assay type: nucleic-acid assay
Caco-2 [22] = test: Anticancer activity against human Caco-2 cells incubated for 24 hrs by MTT assay; assay type: functional, cell-based; settings: Caco-2, 24 h
MCF7 [23] = test: Induction of cell cycle arrest in human MCF7 cells assessed as accumulation of cells at sub-G0/G1 phase incubated for 24 hrs; assay type: functional, cell-based
HepG2 [24] = test: Anticancer activity against human HepG2 cells assessed as smaller cells incubated at 0.11 uM for 72 hrs by phase contrast inverted microscopic analysis; assay type: functional, cell-based
Caco-2 [25] = test: Anticancer activity against human Caco-2 cells assessed as smaller cells incubated at 0.11 uM for 72 hrs by phase contrast inverted microscopic analysis; assay type: functional, cell-based
Caco-2 [26] = test: Anticancer activity against human Caco-2 cells assessed as smaller cells incubated at 0.097uM for 72 hrs by phase contrast inverted microscopic analysis; assay type: functional, cell-based
MCF7 [27] = test: Anticancer activity against human MCF7 cells assessed as round cells incubated at 0.097uM for 72 hrs by phase contrast inverted microscopic analysis; assay type: functional, cell-based
MCF7 [28] = test: Induction of apoptosis in human MCF7 cells assessed as total apoptotic cells incubated at 0.097 uM for 72 hrs by annexin V-FITC based propidium iodide dual staining assay (reference value: 0.04 %); assay type: functional
MCF7 [29] = test: Anticancer activity against human MCF7 cells assessed as absence of normal spindle shape incubated at 0.097uM for 72 hrs by phase contrast inverted microscopic analysis; assay type: functional, cell-based
HeLa [30] = test: Induction of apoptosis in human HeLa cells assessed as late apoptotic cells by measuring orange to red patch incubated at 0.097 uM for 72 hrs by acridine orange-ethidium bromide dual staining based fluorescence microscopic analysis; assay type: functional, cell-based
Caco-2 [31] = test: Induction of apoptosis in human Caco-2 cells assessed as increase in Bax expression level relative to control; assay type: functional
HeLa [32] = test: Induction of apoptosis in human HeLa cells assessed as caspase3/7 activation at 0.097 uM using caspase-glo 3/7 as substrate relative to control; assay type: functional
Caco-2 [33] = test: Induction of apoptosis in human Caco-2 cells assessed as early apoptotic cells by measuring bright green patch incubated at 0.097 uM for 72 hrs by acridine orange-ethidium bromide dual staining based fluorescence microscopic analysis; assay type: functional, cell-based
HepG2 [34] = test: Anticancer activity against human HepG2 cells assessed as cell shrinkage incubated at 0.097uM for 72 hrs by phase contrast inverted microscopic analysis; assay type: functional, cell-based
Caco-2 [35] = test: Induction of apoptosis in human Caco-2 cells assessed as total apoptotic cells incubated at 0.097 uM for 72 hrs by annexin V-FITC based propidium iodide dual staining assay (reference value: 0.04 +/- 0.005%); assay type: functional
Caco-2 [36] = test: Induction of apoptosis in human Caco-2 cells assessed as early apoptotic cells incubated at 0.097 uM for 72 hrs by annexin V-FITC based propidium iodide dual staining assay (reference value: 0.07%); assay type: functional
Caco-2 [37] = test: Induction of apoptosis in human Caco-2 cells assessed as late apoptotic cells by measuring orange to red patch incubated at 0.097 uM for 72 hrs by acridine orange-ethidium bromide dual staining based fluorescence microscopic analysis; assay type: functional, cell-based

`O=C(CN1C(=O)CN(/N=C/c2ccc([N+](=O)[O-])o2)C1=O)c1ccc(Cl)cc1` was tested, and the Activity (MCF7 [1]) was 38.55%, the Activity (HeLa [2]) was 62.92% and the Activity (MCF7 [3]) was “Active”. The Activity (Caco-2 [4]) was “Active”, the Activity (MCF7 [5]) was “Active” and the Activity (HeLa [6]) was “Active”. For the same compound, the Activity (HeLa [7]) was “Active”, the Activity (MCF7 [8]) was 34.7% and the Activity (MCF7 [9]) was “Active”.

`O=c1[nH]cc(F)c(=O)[nH]1` [FLUOROURACIL] was tested, and the Activity (HeLa [10]) was 7.6%, the Activity (HeLa [11]) was 0.89% and the Activity (MCF7 [12]) was 0.68%.

For `C#CCN1C(=O)CN(/N=C/c2ccc([N+](=O)[O-])o2)C1=O`, the viability at 0.11 µM (MCF7 [13]) was 53.7%, the viability at 0.11 µM (Caco-2 [14]) was 49.4% and the Activity (HeLa [15]) was “Active”. For the same compound, the Activity (Caco-2 [16]) was 55%, the Activity (Caco-2 [17]) was “Active” and the Activity (HepG2 [18]) was “Active”. For the same compound, the Activity (MCF7 [19]) was 35.5%, the Activity (MCF7 [20]) was “Active” and the Activity (Caco-2 [21]) was “Active”. For the same compound, the Activity (dsDNA) was 27.2, the IC50 (Caco-2 [22]) was 89 µM and the Activity (MCF7 [23]) was “Active”. For the same compound, the Activity (HepG2 [24]) was “Active” and the Activity (Caco-2 [25]) was “Active”.

For `NS(=O)(=O)c1ccc(-n2cc(CN3C(=O)CN(/N=C/c4ccc([N+](=O)[O-])o4)C3=O)nn2)cc1`, the Activity (Caco-2 [26]) was “Active”, the Activity (MCF7 [27]) was “Active” and the Activity (MCF7 [28]) was 64.08%. For the same compound, the Activity (MCF7 [29]) was “Active”, the Activity (HeLa [30]) was “Active” and the Activity (Caco-2 [31]) was 300%. For the same compound, the Activity (HeLa [32]) was 58%, the Activity (Caco-2 [33]) was “Active” and the Activity (HepG2 [34]) was “Active”. For the same compound, the Activity (Caco-2 [35]) was 36.26%, the Activity (Caco-2 [36]) was 30.95% and the Activity (Caco-2 [37]) was “Active”.
